Source: the supplement of paper PMC11208160

Experiment: recombinant UMI read abundance after kanamycin selection (control-corrected) (log10(CPM+1)); higher = more efficient recombination; extreme values may be limits of the assay; sequences stand for … in AGTGCAGAGAAAATCGGCCAGTTTTCTCTGCCTGCAGTCCGCATGCCGTGGGACCCCTTGGGTTCTAACCTGTTGCCTAGATTTATGCAGCGGACTGCCTTTCTCCCAAAGTGATAAACCGG…AGGTTGGTTTCACT; site = the 11-nt donor
Summary of the method: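 In a pooled Escherichia coli screen for the IS621 bridge recombinase, donor and donor-binding-loop pairs were each placed with a 12-nt UMI on a plasmid bearing a promoterless kanamycin gene. This library was co-electroporated with a target plasmid encoding a fixed target and T7-inducible recombinase, and cells were plated either on IPTG (0.07 mM) plus kanamycin or without selection, in two replicates each. Recombinant UMIs were PCR-amplified across the donor–target junction and sequenced, and counts were converted to CPM, averaged over replicates, scaled by control-derived factors and reported as log10(CPM+1).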
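Also: IS621 bridge recombinase in Escherichia coli cells against a fixed T5 target plasmid.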

Sequence	recombinant UMI read abundance (log10)
GTGGAGACATGGACCGGTTTTCCCGGTAATCCGTATTTGTG (site GTGGAGACTCA)	1.59
GTGGAGACATGGACCGGTTTTCCCGGTAATCCGTATTTGTG (site GTGGAGCCTCA)	0.0116
GTGGAGACATGGACCGGTTTTCCCGGTAATCCGTATTTGTG (site GTGGAGGCTCA)	1.4
GTGGAGACATGGACCGGTTTTCCCGGTAATCCGTATTTGTG (site GTGGAGTCTCA)	1.99
GTGGAGCCATGGACCGGTTTTCCCGGTAATCCGTATTTGTG (site GTGGAGACTCA)	0.00935
GTGGAGCCATGGACCGGTTTTCCCGGTAATCCGTATTTGTG (site GTGGAGCCTCA)	0.484
GTGGAGCCATGGACCGGTTTTCCCGGTAATCCGTATTTGTG (site GTGGAGGCTCA)	0.00706
GTGGAGCCATGGACCGGTTTTCCCGGTAATCCGTATTTGTG (site GTGGAGTCTCA)	1.74
GTGGAGGCATGGACCGGTTTTCCCGGTAATCCGTATTTGAG (site GTGGAGGCTCA)	0.00393
GTGGAGGCATGGACCGGTTTTCCCGGTAATCCGTATTTGAG (site GTGGAGGCTCC)	0.297
GTGGAGGCATGGACCGGTTTTCCCGGTAATCCGTATTTGAG (site GTGGAGGCTCG)	0.681
GTGGAGGCATGGACCGGTTTTCCCGGTAATCCGTATTTGAG (site GTGGAGGCTCT)	1.57
GTGGAGGCATGGACCGGTTTTCCCGGTAATCCGTATTTGGG (site GTGGAGGCTCA)	0.238
GTGGAGGCATGGACCGGTTTTCCCGGTAATCCGTATTTGGG (site GTGGAGGCTCC)	0.954
GTGGAGGCATGGACCGGTTTTCCCGGTAATCCGTATTTGGG (site GTGGAGGCTCG)	0.597
GTGGAGGCATGGACCGGTTTTCCCGGTAATCCGTATTTGGG (site GTGGAGGCTCT)	0.567
GTGGAGGCATGGACCGGTTTTCCCGGTAATCCGTATTTGTA (site GTGGAGGCTAA)	0.557
GTGGAGGCATGGACCGGTTTTCCCGGTAATCCGTATTTGTA (site GTGGAGGCTCA)	0.682
GTGGAGGCATGGACCGGTTTTCCCGGTAATCCGTATTTGTA (site GTGGAGGCTGA)	0.943
GTGGAGGCATGGACCGGTTTTCCCGGTAATCCGTATTTGTA (site GTGGAGGCTTA)	2.86
GTGGATACATGGACCGGTTTTCCCGGTAATCCGTATTTGCA (site GTGGATACTTG)	1.84
GTGGCCTCATGGACCGGTTTTCCCGGTAATCCGTATTTGGA (site GTGGCCTCTTC)	1.43
GTGGCTGCATGGACCGGTTTTCCCGGTAATCCGTATTTGCC (site GTGGCTGCTGG)	2.44
GTGGGCGCATGGACCGGTTTTCCCGGTAATCCGTATTTGAC (site GTGGGCGCTGT)	2.43
GTGGGTACATGGACCGGTTTTCCCGGTAATCCGTATTTGTG (site GTGGGTACTCA)	1.46

Sequence	recombinant UMI read abundance (log10)
GTGGGTTCATGGACCGGTTTTCCCGGTAATCCGTATTTGGC (site GTGGGTTCTGC)	2.19
GTGGTCGCATGGACCGGTTTTCCCGGTAATCCGTATTTGCG (site GTAGTCGCTCG)	0.519
GTGGTCGCATGGACCGGTTTTCCCGGTAATCCGTATTTGCG (site GTCGTCGCTCG)	0.0116
GTGGTCGCATGGACCGGTTTTCCCGGTAATCCGTATTTGCG (site GTGGTCGCTCG)	1.15
GTGGTCGCATGGACCGGTTTTCCCGGTAATCCGTATTTGCG (site GTTGTCGCTCG)	0.00973
GTGTAAACATGGACCGGTTTTCCCGGTAATCCGTATTTGCT (site GTGTAAACTAG)	2.89
GTGTATACATGGACCGGTTTTCCCGGTAATCCGTATTTGCT (site GTGTATACTAG)	2.44
GTGTCCCCATGGACCGGTTTTCCCGGTAATCCGTATTTGGA (site GTGTCCCCTTC)	0.0113
GTGTGCACATGGACCGGTTTTCCCGGTAATCCGTATTTGTA (site GTATGCACTTA)	1.48
GTGTGCACATGGACCGGTTTTCCCGGTAATCCGTATTTGTA (site GTCTGCACTTA)	0.0255
GTGTGCACATGGACCGGTTTTCCCGGTAATCCGTATTTGTA (site GTGTGCACTTA)	2.15
GTGTGCACATGGACCGGTTTTCCCGGTAATCCGTATTTGTA (site GTTTGCACTTA)	0.00854
GTGTTCTCATGGACCGGTTTTCCCGGTAATCCGTATTTGAA (site GTGTTCTCTTT)	2.52
GTTAAAACATGGACCGGTTTTCCCGGTAATCCGTATTTGGC (site GTTAAAACTGC)	0
GTTAAAACATGGACCGGTTTTCCCGGTAATCCGTATTTGGC (site GTTACAACTGC)	0
GTTAAAACATGGACCGGTTTTCCCGGTAATCCGTATTTGGC (site GTTAGAACTGC)	0.02
GTTAAAACATGGACCGGTTTTCCCGGTAATCCGTATTTGGC (site GTTATAACTGC)	0
GTTAAATCATGGACCGGTTTTCCCGGTAATCCGTATTTGAA (site GTTAAATCTTT)	1.62
GTTAAGGCATGGACCGGTTTTCCCGGTAATCCGTATTTGTC (site GTTAAGGCTGA)	2.82
GTTACACCATGGACCGGTTTTCCCGGTAATCCGTATTTGAA (site GTTACACCTTT)	0.0186
GTTAGAACATGGACCGGTTTTCCCGGTAATCCGTATTTGCC (site GTTAGAACTGA)	0
GTTAGAACATGGACCGGTTTTCCCGGTAATCCGTATTTGCC (site GTTAGAACTGC)	0
GTTAGAACATGGACCGGTTTTCCCGGTAATCCGTATTTGCC (site GTTAGAACTGG)	0
GTTAGAACATGGACCGGTTTTCCCGGTAATCCGTATTTGCC (site GTTAGAACTGT)	0
GTTAGAACATGGACCGGTTTTCCCGGTAATCCGTATTTGGG (site GTTAGAACTAC)	0

Sequence	recombinant UMI read abundance (log10)
GTTAGAACATGGACCGGTTTTCCCGGTAATCCGTATTTGGG (site GTTAGAACTCC)	0.172
GTTAGAACATGGACCGGTTTTCCCGGTAATCCGTATTTGGG (site GTTAGAACTGC)	0
GTTAGAACATGGACCGGTTTTCCCGGTAATCCGTATTTGGG (site GTTAGAACTTC)	0.00779
GTTAGAACATGGACCGGTTTTCCCGGTAATCCGTATTTGTC (site GTTAGAACTGA)	1.52
GTTAGAACATGGACCGGTTTTCCCGGTAATCCGTATTTGTC (site GTTAGAACTGC)	0
GTTAGAACATGGACCGGTTTTCCCGGTAATCCGTATTTGTC (site GTTAGAACTGG)	0
GTTAGAACATGGACCGGTTTTCCCGGTAATCCGTATTTGTC (site GTTAGAACTGT)	0.013
GTTAGAGCATGGACCGGTTTTCCCGGTAATCCGTATTTGAC (site GTTAGAGCTGT)	2.46
GTTAGATCATGGACCGGTTTTCCCGGTAATCCGTATTTGGC (site GTTAGAACTGC)	0
GTTAGATCATGGACCGGTTTTCCCGGTAATCCGTATTTGGC (site GTTAGACCTGC)	0
GTTAGATCATGGACCGGTTTTCCCGGTAATCCGTATTTGGC (site GTTAGAGCTGC)	0
GTTAGATCATGGACCGGTTTTCCCGGTAATCCGTATTTGGC (site GTTAGATCTGC)	1.92
GTTATAACATGGACCGGTTTTCCCGGTAATCCGTATTTGGC (site GTTAAAACTGC)	0
GTTATAACATGGACCGGTTTTCCCGGTAATCCGTATTTGGC (site GTTACAACTGC)	0
GTTATAACATGGACCGGTTTTCCCGGTAATCCGTATTTGGC (site GTTAGAACTGC)	0
GTTATAACATGGACCGGTTTTCCCGGTAATCCGTATTTGGC (site GTTATAACTGC)	1.28
GTTATTGCATGGACCGGTTTTCCCGGTAATCCGTATTTGAT (site GTTATTGCTAT)	1.79
GTTCCAGCATGGACCGGTTTTCCCGGTAATCCGTATTTGCA (site GTTCAAGCTTG)	0
GTTCCAGCATGGACCGGTTTTCCCGGTAATCCGTATTTGCA (site GTTCCAGCTTG)	1.64
GTTCCAGCATGGACCGGTTTTCCCGGTAATCCGTATTTGCA (site GTTCGAGCTTG)	0
GTTCCAGCATGGACCGGTTTTCCCGGTAATCCGTATTTGCA (site GTTCTAGCTTG)	0
GTTCCAGCATGGACCGGTTTTCCCGGTAATCCGTATTTGCT (site GTTCCAGCTAG)	1.06
GTTCGAACATGGACCGGTTTTCCCGGTAATCCGTATTTGCA (site GTTCGAACTTG)	0.418
GTTCGAACATGGACCGGTTTTCCCGGTAATCCGTATTTGCA (site GTTCGACCTTG)	0
GTTCGAACATGGACCGGTTTTCCCGGTAATCCGTATTTGCA (site GTTCGAGCTTG)	0.00306
